Source: patent US20250281424A1 (New York Blood Center, Inc, priority 2020, published 2025)

What was measured:
Heparin-PF4-KKO mice = assay: In vivo activity, heparin-PF4-KKO induced thrombocytopenia (mouse model of HIT)
Procedure: Heparin-PF4-KKO mice that were induced to thrombocytopenia were administered the compound of Example 1. The dosing regimen was guided by the PK results in Table 4 (see Example A6). At T0hr, 5 mg/kg of Compound 1 was given by retro-orbital injection. 1000 units/kg heparin was injected subcutaneously at T3hr. At T4hr, 20 mg/kg of KKO antibody was administered by retro-orbital injection. Also at T4hr, an additional 5 mg/kg of the compound was injected intraperitoneally. Platelet count was measured at T8hr.

[1] = Plasma protein binding (PPB, mouse); format: in vitro ADME; settings: mouse, plasma; read-out: PPB mouse (% bound) (converted)
From the text: (§1) Certain exemplified compounds were examined for ADMET (absorption, distribution, metabolism, excretion and toxicity) profiling using conventional assays with the results shown in the Tables 3A-3C below.

plasma protein = assay: Plasma protein binding (PPB, mouse); format: in vitro ADME
From the text: as §1

| fraction unbound [1] | protein binding (plasma protein) | SMILES | tolerability (Heparin-PF4-KKO mice; mice, 5 mg/kg IV and IP doses) | heparin-PF4-KKO induced thrombocytopenia in vivo (Heparin-PF4-KKO mice; mouse model of HIT (FIG. 4)) | platelet counts at 4 hr, remaining mouse (Heparin-PF4-KKO mice; one of the four mice) | platelet counts 4 hr after KKO administration (Heparin-PF4-KKO mice; three of the four mice, 5 mg/kg retro-orbital at T0hr + 5 mg/kg IP at T4hr) |
| --- | --- | --- | --- | --- | --- | --- |
| – | – | CC(=O)C1C(=O)c2ccc(C(=O)c3ccc4c(c3)C(=O)C(C(C)=O)C4=O)cc2C1=O (stereo not drawn) [Example 1, 5,5′-carbonylbis(2-acetyl-1h-indene-1,3(2h)-dione)] | tolerated the 5 mg/kg IV and IP doses of the compound well | reduces heparin-PF4-KKO induced thrombocytopenia in vivo | only a little higher than DMSO controls | > 80 % of baseline |
| 0.043 | high protein binding | CCOC(=O)C1C(=O)c2ccc(C(=O)c3ccc4c(c3)C(=O)C(C(=O)OCC)C4=O)cc2C1=O (stereo not drawn) [Example 3, diethyl 5,5′-carbonylbis(1,3-dioxo-2,3-dihydro-1h-indene-2-carboxylate)] | – | – | – | – |
